Source: ChEMBL document CHEMBL5042510, “Structure-Guided Discovery of Aminoquinazolines as Brain-Penetrant and Selective LRRK2 Inhibitors” (J Med Chem, 2022)
≈ marks a conversion by molar mass, not a printed value.

Columns and labels:
[1] = Thermodynamic solubility of the compound in FaSSIF measured after 24 hrs by reverse phase UPLC analysis; assay type: physicochemical; settings: read-out: Therm_solubility
[2] = AUC in rat at 10 to 400 mg/kg, po qd for 4 days by LC/MS/MS analysis; assay type: ADME, organism-based; design: time 4 day; settings: in vivo, 96 h, dose 10-400 mg/kg
Salmonella typhimurium [3] = experiment: Mutagenicity in Salmonella typhimurium TA1535 at 30 to 5000 ug incubated for 48 hrs in presence of liver S9 fraction by AMES test; assay type: toxicity, organism-based, Salmonella enterica subsp. enterica serovar Typhimurium; settings: s9, 48 h, dose 30-5000 µg
[4] = MRT in Beagle dog at 1 mg/kg, iv by LC-MS/MS analysis; assay type: ADME, organism-based, Canis lupus familiaris; settings: in vivo
[5] = Oral bioavailability in Wistar Han rat at 5 mg/kg by LC-MS/MS analysis; assay type: ADME, organism-based; settings: in vivo
[6] = Oral bioavailability in Beagle dog at 0.5 mg/kg by LC-MS/MS analysis; assay type: ADME, organism-based, Canis lupus familiaris; settings: in vivo
[7] = target: Voltage-gated inwardly rectifying potassium channel KCNH2 (Homo sapiens, UniProt Q12809); experiment: Inhibition of human ERG by voltage clamp assay; assay type: toxicity
Chain of Voltage-gated inwardly rectifying potassium channel KCNH2 (Q12809 whole entry): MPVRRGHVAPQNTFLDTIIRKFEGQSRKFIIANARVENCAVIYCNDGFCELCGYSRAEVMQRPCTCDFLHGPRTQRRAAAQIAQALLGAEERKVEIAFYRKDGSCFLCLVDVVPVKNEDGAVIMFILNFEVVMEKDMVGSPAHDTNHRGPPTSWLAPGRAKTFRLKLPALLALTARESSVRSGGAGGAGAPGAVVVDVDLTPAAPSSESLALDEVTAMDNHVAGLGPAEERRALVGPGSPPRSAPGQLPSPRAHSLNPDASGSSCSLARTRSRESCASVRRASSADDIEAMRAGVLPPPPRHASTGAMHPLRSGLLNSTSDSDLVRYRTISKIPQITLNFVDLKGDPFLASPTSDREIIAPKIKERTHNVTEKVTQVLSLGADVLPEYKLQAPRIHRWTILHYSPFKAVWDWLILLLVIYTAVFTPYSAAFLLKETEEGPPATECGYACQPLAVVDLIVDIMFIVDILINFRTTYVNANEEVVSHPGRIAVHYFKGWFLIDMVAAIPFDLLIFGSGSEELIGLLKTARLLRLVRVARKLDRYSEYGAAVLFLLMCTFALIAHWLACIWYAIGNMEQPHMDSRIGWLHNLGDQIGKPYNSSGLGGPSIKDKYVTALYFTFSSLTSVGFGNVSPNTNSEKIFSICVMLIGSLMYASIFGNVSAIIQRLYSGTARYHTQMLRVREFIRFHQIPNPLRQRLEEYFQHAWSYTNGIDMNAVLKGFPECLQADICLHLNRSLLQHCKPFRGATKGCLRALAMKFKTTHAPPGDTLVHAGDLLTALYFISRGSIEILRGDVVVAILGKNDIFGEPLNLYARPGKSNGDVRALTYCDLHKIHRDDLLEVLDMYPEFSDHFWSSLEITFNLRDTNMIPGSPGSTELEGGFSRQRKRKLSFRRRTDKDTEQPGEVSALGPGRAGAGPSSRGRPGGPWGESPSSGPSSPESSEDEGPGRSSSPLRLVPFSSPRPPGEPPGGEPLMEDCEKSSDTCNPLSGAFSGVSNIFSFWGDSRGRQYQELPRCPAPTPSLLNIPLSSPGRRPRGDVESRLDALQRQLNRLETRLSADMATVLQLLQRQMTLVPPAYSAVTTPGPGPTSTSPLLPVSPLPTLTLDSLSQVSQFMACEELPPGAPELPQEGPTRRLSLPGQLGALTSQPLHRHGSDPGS

[8] = target: Mitogen-activated protein kinase 3 (Homo sapiens, UniProt P27361); experiment: Inhibition of ERK1 (unknown origin)
Chain of Mitogen-activated protein kinase 3 (P27361 whole entry, the tested form may be a part): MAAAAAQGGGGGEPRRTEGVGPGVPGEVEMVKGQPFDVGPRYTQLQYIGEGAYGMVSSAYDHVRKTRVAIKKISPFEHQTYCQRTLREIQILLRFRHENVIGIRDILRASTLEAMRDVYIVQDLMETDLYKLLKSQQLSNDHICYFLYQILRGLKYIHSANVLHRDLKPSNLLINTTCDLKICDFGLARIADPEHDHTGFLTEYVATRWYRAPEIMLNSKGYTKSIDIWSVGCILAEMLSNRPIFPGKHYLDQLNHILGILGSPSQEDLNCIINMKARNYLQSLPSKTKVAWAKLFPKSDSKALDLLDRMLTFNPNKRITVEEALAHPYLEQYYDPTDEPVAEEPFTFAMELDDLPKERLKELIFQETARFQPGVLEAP

[9] = Cardiotoxicity in guinea pig assessed as increase in QTc level at 157X unbound EM infused via iv consecutively for 20 mins; assay type: toxicity, organism-based, Cavia porcellus; settings: in vivo
Substance-P receptor = Substance-P receptor (Homo sapiens, UniProt P25103); experiment: Inhibition of tachykinin NK1 receptor (unknown origin)
Chain of Substance-P receptor (P25103 whole entry): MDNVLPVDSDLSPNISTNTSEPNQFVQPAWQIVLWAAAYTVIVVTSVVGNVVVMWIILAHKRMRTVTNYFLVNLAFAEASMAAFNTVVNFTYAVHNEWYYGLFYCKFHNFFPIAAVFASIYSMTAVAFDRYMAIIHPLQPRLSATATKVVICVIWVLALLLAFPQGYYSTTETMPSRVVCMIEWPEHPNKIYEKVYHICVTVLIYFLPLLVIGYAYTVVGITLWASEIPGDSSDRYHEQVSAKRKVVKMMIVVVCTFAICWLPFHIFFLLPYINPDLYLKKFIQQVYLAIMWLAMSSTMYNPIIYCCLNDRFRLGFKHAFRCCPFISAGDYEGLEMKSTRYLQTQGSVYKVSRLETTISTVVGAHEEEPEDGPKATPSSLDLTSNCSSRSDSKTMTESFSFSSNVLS

[10] = Intrinsic clearance in Rhesus monkey at 3 mg/kg, iv by LC-MS/MS analysis; assay type: ADME, organism-based, Macaca mulatta; settings: in vivo
[11] = Toxicity in rat assessed as fold increase in serum ALP levels at 150 mg/kg, po qd administered for 4 days; assay type: organism-based; settings: in vivo, 96 h, time 4 day
[12] = Intrinsic clearance in human hepatocytes at 0.3 uM incubated for 90 mins by LC/MS/MS analysis; assay type: ADME, cell-based, Hepatocyte; settings: read-out: CLH
[13] = In vivo inhibition of LRRK2 in CD rat assessed as reduction in phosphorylation at Ser935 residue in striatum at 3 mg/kg, po measured after 2 hrs by MSD assay; assay type: functional
[14] = Inhibition of adenosine transporter (unknown origin); design: species or system Homo sapiens
[15] = In vivo inhibition of LRRK2 in CD rat assessed as reduction in phosphorylation at Ser935 residue in striatum at 100 mg/kg, po measured after 2 hrs by MSD assay; assay type: functional
[16] = Toxicity in rat assessed as reduction in weight gain at 150 mg/kg, po qd administered for 4 days; assay type: organism-based; settings: in vivo, 96 h, time 4 day
[17] = Oral bioavailability in Rhesus monkey at 2 mg/kg by LC-MS/MS analysis; assay type: ADME, organism-based, Macaca mulatta; settings: in vivo
[18] = Total plasma clearance in Rhesus monkey at 3 mg/kg, iv by LC-MS/MS analysis; assay type: ADME, organism-based, Macaca mulatta
UGT1A6 = experiment: Toxicity in rat assessed as fold increase in UGT1A6 transcriptional activity in liver at 75 mg/kg, po bid administered for 4 days relative to control; assay type: organism-based; settings: time 4 day, read-out: FC
[19] = Total plasma clearance in Wistar Han rat at 2 mg/kg, iv by LC-MS/MS analysis; assay type: ADME, organism-based
[20] = Genotoxicity in CHO-WBL cells incubated for 3 hrs in presence of liver S9 extract by invitro micronucleus test; assay type: toxicity, Cricetulus griseus; settings: chinese hamster, s9, 3 h
[21] = Cardiotoxicity in telemetered Wistar Han rat assessed as NOAEL at 30 mg/kg, po; assay type: toxicity, organism-based; settings: in vivo
[22] = tested on: Leucine-rich repeat serine/threonine-protein kinase 2 (Homo sapiens), Q5S007 [G2019S]; experiment: Inhibition of LRRK2 […] mutant expressed in human SH-SY5Y cells assessed as unbound concentration required for inhibition of phosphorylation of LRRK2 at Ser935 residue incubated for 90 mins by MSD assay; assay type: cell-based
Chain of Leucine-rich repeat serine/threonine-protein kinase 2 (Homo sapiens), Q5S007 [G2019S] (Q5S007 whole entry G2019S): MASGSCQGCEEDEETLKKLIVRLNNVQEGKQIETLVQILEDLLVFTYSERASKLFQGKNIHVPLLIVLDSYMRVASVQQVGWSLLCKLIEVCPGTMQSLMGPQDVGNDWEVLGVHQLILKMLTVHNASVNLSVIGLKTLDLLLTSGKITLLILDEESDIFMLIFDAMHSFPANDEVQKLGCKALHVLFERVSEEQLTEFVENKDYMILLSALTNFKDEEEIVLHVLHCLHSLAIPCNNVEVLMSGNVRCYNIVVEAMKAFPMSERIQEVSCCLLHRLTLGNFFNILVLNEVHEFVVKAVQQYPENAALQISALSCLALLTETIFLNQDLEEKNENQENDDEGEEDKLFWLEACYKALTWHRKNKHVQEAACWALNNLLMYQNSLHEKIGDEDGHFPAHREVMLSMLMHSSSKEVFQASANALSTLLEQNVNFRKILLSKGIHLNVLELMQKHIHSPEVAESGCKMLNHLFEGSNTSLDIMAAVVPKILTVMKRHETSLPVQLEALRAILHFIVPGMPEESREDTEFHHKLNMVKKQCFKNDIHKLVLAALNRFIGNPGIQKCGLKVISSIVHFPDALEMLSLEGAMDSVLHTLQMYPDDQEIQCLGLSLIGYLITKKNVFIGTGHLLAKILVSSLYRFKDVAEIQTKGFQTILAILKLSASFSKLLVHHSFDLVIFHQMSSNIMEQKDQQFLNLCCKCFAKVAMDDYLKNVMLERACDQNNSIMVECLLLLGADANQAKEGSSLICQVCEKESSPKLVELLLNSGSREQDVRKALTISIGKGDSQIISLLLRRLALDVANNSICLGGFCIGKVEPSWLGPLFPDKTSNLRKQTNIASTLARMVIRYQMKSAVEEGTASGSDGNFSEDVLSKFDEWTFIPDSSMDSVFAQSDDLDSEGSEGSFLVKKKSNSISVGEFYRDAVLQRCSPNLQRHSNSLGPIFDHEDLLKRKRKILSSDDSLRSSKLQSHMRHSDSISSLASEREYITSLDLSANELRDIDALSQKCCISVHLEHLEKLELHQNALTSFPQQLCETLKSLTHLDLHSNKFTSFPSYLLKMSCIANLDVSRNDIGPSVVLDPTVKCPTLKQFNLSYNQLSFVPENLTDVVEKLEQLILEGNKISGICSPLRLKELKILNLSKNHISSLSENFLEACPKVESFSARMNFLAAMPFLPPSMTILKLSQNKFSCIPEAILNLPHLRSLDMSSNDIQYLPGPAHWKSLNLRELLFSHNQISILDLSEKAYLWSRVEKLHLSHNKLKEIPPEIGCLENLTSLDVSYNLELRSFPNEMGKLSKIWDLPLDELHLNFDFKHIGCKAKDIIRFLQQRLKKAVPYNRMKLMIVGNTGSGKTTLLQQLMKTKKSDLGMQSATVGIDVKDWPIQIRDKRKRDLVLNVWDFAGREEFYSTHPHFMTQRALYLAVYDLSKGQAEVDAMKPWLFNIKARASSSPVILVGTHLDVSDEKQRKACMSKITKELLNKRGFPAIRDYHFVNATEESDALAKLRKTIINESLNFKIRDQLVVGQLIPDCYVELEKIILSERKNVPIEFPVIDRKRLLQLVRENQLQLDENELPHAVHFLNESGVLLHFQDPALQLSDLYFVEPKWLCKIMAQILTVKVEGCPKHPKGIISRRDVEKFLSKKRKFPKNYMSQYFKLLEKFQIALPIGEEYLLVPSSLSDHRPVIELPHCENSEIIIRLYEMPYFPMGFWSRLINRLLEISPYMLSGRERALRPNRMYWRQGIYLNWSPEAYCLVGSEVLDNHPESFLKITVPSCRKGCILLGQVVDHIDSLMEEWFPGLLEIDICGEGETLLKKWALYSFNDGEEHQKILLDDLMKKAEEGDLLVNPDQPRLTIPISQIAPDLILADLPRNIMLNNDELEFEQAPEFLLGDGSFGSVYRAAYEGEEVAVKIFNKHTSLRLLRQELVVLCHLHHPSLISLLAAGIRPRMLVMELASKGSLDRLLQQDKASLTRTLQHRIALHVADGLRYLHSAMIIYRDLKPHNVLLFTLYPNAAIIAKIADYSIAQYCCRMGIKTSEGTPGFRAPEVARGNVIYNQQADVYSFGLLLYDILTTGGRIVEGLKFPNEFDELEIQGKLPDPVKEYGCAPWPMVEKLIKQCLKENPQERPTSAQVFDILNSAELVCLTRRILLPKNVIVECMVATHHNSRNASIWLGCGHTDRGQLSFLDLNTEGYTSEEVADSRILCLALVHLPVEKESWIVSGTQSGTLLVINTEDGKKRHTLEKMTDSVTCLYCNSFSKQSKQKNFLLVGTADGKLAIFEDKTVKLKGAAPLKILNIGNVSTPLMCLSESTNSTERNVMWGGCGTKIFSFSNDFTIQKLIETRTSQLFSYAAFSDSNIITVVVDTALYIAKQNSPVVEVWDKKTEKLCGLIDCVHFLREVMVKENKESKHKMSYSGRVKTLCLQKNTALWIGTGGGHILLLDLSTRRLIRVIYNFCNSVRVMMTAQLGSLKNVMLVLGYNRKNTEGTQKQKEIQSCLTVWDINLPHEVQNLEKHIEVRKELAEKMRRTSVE

Salmonella typhimurium [23] = experiment: Mutagenicity in Salmonella typhimurium TA98 at 30 to 5000 ug incubated for 48 hrs in presence of liver S9 fraction by AMES test; assay type: toxicity, organism-based, Salmonella enterica subsp. enterica serovar Typhimurium; settings: s9, 48 h, dose 30-5000 µg
[24] = target: Leucine-rich repeat serine/threonine-protein kinase 2 (Homo sapiens, UniProt Q5S007, G2019S); experiment: Inhibition of recombinant N-terminal GST-fused LRRK2 […] mutant (970 to 2527 residues) (unknown origin) preincubated with enzyme for 15 mins followed by fluorescein-labeled LRRKtide peptide substrate and ATP addition for 90 mins by TR-FRET assay
Chain of Leucine-rich repeat serine/threonine-protein kinase 2 (Q5S007 whole entry G2019S, the tested form may be a part): as the sequence (Q5S007 whole entry G2019S) above

[25] = Unbound fraction in CD rat plasma at 1 to 100 mg/kg, po measured after 120 mins by LC/MS/MS analysis; assay type: ADME, organism-based; settings: in vivo, 2 h, dose 1-100 mg/kg
[26] = Toxicity in rat assessed as elevation of AhR gene expression at 10 to 75 mg/kg, po bid administered for 4 days; assay type: organism-based; settings: in vivo, 96 h, dose 10-75 mg/kg, time 4 day
[27] = Toxicity in rat assessed as fold increase in serum ALT levels at 150 mg/kg, po qd administered for 4 days; assay type: organism-based; settings: in vivo, 96 h, time 4 day
[28] = MRT in Rhesus monkey at 3 mg/kg, iv by LC-MS/MS analysis; assay type: ADME, organism-based, Macaca mulatta; settings: in vivo
[29] = Toxicity in rat assessed as elevation of PXR gene expression at 10 to 75 mg/kg, po bid administered for 4 days; assay type: organism-based; settings: in vivo, 96 h, dose 10-75 mg/kg, time 4 day
[30] = Cardiotoxicity in telemetered Wistar Han rat assessed as elevation of diastolic blood pressure at 100 mg/kg, po; assay type: toxicity, organism-based; settings: in vivo
[31] = Unbound brain-to-plasma concentration ratio in rat at 2.5 uM incubated for 4 hrs by equilibrium dialysis method; assay type: ADME, cell-free; settings: brain and plasma (unbound), read-out: K(p,uu,brain)
[32] = Total plasma clearance in Beagle dog at 1 mg/kg, iv by LC-MS/MS analysis; assay type: ADME, organism-based, Canis lupus familiaris
rat Mdr1a (P-gp) = experiment: Efflux ratio of apparent permeability across basolateral to apical side over apical to basolateral side in rat Mdr1a-transfected pig LLC-PK1 cells at 0.1 to 1 uM measured after 3 hrs by LC/MS/MS analysis; assay type: ADME, cell-based, Sus scrofa; settings: dose 0.1-1 µM
[33] = Unbound brain-to-plasma concentration ratio in CD rat 1 to 100 mg/kg, po measured after 120 mins by LC/MS/MS analysis; assay type: ADME, organism-based; settings: brain and plasma (unbound), dose 1-100 mg/kg, read-out: K(p,uu,brain)
[34] = Unbound fraction in CD rat brain at 1 to 100 mg/kg, po measured after 120 mins by LC/MS/MS analysis; assay type: ADME, organism-based; settings: in vivo, 2 h, dose 1-100 mg/kg
[35] = Dissociation constant, pKa of the compound; assay type: physicochemical
[36] = Intrinsic clearance in Wistar Han rat at 2 mg/kg, iv by LC-MS/MS analysis; assay type: ADME, organism-based; settings: in vivo
[37] = Toxicity in rat assessed as elevation of inflammatory response related gene expression at 10 to 75 mg/kg, po bid administered for 4 days; assay type: organism-based; settings: in vivo, 96 h, dose 10-75 mg/kg, time 4 day
[38] = In vivo inhibition of LRRK2 in CD rat assessed as reduction in phosphorylation at Ser935 residue in striatum at 30 mg/kg, po measured after 2 hrs by MSD assay; assay type: functional

O[C@H]1COC[C@H]1N1CC[C@@H](c2cc3nc(Nc4cnn([C@@H]5CC5(F)F)c4Cl)ncc3cc2Cl)[C@H](F)C1
solubility thermodynamic at 24 h [1]: 4 µg/mL (≈ 7.36 µM)
AUC [2]: 99 µM·h
Activity (Salmonella typhimurium [3]): Non-Toxic
MRT [4]: 24 h
bioavailability [5]: 83%
bioavailability [6]: 79%
IC50 [7]: 9.7 µM
IC50 [8]: 1.8 µM
Activity [9]: 2%
IC50 (Substance-P receptor): 5.7 µM
CL [10]: 1295 mL/min/kg
fold change (FC) [11]: 2
CLint scaled at 0.3 µM [12]: 116 mL/min/kg
inhibition in vivo at 3 mg/kg [13]: 32%
IC50 [14]: 9.6 µM
inhibition in vivo at 100 mg/kg [15]: 97%
Activity [16]: Toxic
bioavailability [17]: 18%
clearance [18]: 21 mL/min/kg
fold induction at 96 h (UGT1A6): 2.5
clearance [19]: 19 mL/min/kg
Activity [20]: Non-Toxic
Activity [21]: Non-Toxic
fIC50 [22]: 0.57 nM
Activity (Salmonella typhimurium [23]): Non-Toxic
IC50 [24]: < 0.0006 µM
Cp(f) [25]: 10.14 nM
Activity [26]: Non-Toxic
fold change (FC) [27]: 2
MRT [28]: 5.2 h
Activity [29]: Non-Toxic
Activity [30]: Toxic
Kp uu at 4 h, 2.5 µM [31]: 0.36
clearance [32]: 9 mL/min/kg
efflux ratio at 3 h, up to 1 µM (rat Mdr1a (P-gp)): 3.7
Kp uu at 2 h [33]: 0.36
Cp(f) [34]: 3.7 nM
pKa [35]: 5.65
CL [36]: 1278 mL/min/kg
Activity [37]: Non-Toxic
inhibition in vivo at 30 mg/kg [38]: 92%
